# Read-outs that look alike come from different tables or passages of the source.
# What was measured:
# tubulin = assay: Induction/enhancement of tubulin assembly (Lin, et al., 1996); assay type: biochemical; details: 10 μM tubulin, 0.4M monosodium glutamate, 30 min at room temperature
# MCF-7 = assay: Cytotoxicity, standard NCI assay with sulforhodamine B, 96 h; details: for GI50: read-out: cytotoxicity (GI50, nM ± SD) MCF-7; for IC50: read-out: Cytotoxicity (nM, ± SD) MCF-7
# OVCAR-8 = assay: as above; details: for GI50: read-out: cytotoxicity (GI50, nM ± SD) OVCAR-8; for IC50: read-out: Cytotoxicity (nM, ± SD) OVCAR-8
# NCI/ADR-RES = assay: as above; assay type: cell-based, human; details: read-out: Cytotoxicity (nM, ± SD) NCI/ADR-RES
# SNB-75 = assay: as above; assay type: cell-based, human; details: read-out: Cytotoxicity (nM, ± SD) SNB-75
# MDA-MB-435 = assay: as above; assay type: cell-based, human; details: read-out: Cytotoxicity (nM, ± SD) MDA-MB-435
# [1] = Table 2, read-out: induction of tubulin assembly (EC50, μM ± SD)
# [2] = Table 3, read-out: Enhancement of tubulin assembly (EC50)
# [3] = Homo sapiens, NCI/ADR-RES, 96 h
# [4] = MCF-7, IC50, 96 h at 37° C., Table 3
# [5] = SNB-75, IC50, 96 h at 37° C., Table 3
# [6] = MDA-MB-435, IC50, 96 h at 37° C., Table 3
# [7] = OVCAR-8, IC50, 96 h at 37° C., Table 3
# [8] = OVCAR-8, 96 h at 37° C., Table 2
# [9] = NCI/ADR-RES (overexpresses P-glycoprotein), IC50, 96 h at 37° C., Table 3
Structure (SMILES),EC50 (tubulin; [1]),EC50 (tubulin; [2]),"IC50 (MCF-7; Homo sapiens, MCF7, 96 h)","IC50 (OVCAR-8; Homo sapiens, OVCAR-8, 96 h)",IC50 (NCI/ADR-RES; [3]),"IC50 (SNB-75; Homo sapiens, SNB-75, 96 h)","IC50 (MDA-MB-435; Homo sapiens, MDA-MB-435, 96 h)",also measured
C/C(=C\c1ccn(-c2ccc(N)cc2C(F)(F)F)n1)[C@@H]1C[C@@H]2O[C@]2(C)CCC[C@H](C)[C@H](O)[C@@H](C)C(=O)C(C)(C)[C@@H](O)CC(=O)O1 [Compound 13],> 40 µM,–,–,–,–,–,–,"GI50 (MCF-7; Homo sapiens, MCF7, 96 h): 9 ± 1 nM; GI50 (OVCAR-8; Homo sapiens, OVCAR-8, 96 h): 35 ± 5 nM"
C/C(=C\c1csc(C)n1)[C@@H]1C[C@@H]2N[C@]2(C)CCC[C@H](C)[C@H](O)[C@@H](C)C(=O)C(C)(C)[C@@H](O)CC(=O)O1 [Compound 70],–,19 µM,2 nM,1.5 ± 0.7 nM,35 ± 7 nM,–,–,–
C/C(=C\c1csc(C)n1)[C@@H]1C[C@@H]2N(CCO)[C@]2(C)CCC[C@H](C)[C@H](O)[C@@H](C)C(=O)C(C)(C)[C@@H](O)CC(=O)O1 (stereo partly shown) [Compound 71],–,18.2 µM,3 ± 1 nM,4.5 ± 0.7 nM,55 ± 20 nM,–,–,–
C/C(=C\c1ccccn1)[C@@H]1C[C@@H]2N(CCO)[C@]2(C)CCC[C@H](C)[C@H](O)[C@@H](C)C(=O)C(C)(C)[C@@H](O)CC(=O)O1 (stereo partly shown) [Compound 73],–,> 60 µM,250 ± 40 nM,170 ± 20 nM,4000 nM,98 ± 10 nM,30 ± 4 nM,–
C/C(=C\c1nc2ccccc2s1)[C@@H]1C[C@@H]2N(CCO)[C@]2(C)CCC[C@H](C)[C@H](O)[C@@H](C)C(=O)C(C)(C)[C@@H](O)CC(=O)O1 (stereo partly shown) [Compound 74],–,7.9 ± 1 µM,11 ± 1 nM,23 ± 7 nM,630 ± 80 nM,12 ± 3 nM,3.5 ± 0.3 nM,–
C/C(=C\c1csc(CN)n1)[C@@H]1C[C@@H]2N(CCO)[C@]2(C)CCC[C@H](C)[C@H](O)[C@@H](C)C(=O)C(C)(C)[C@@H](O)CC(=O)O1 (stereo partly shown) [Compound 75],–,> 60 µM,65 ± 7 nM,93 ± 20 nM,2800 nM,130 ± 20 nM,20 ± 3 nM,–
C/C(=C\c1csc(CCN)n1)[C@@H]1C[C@@H]2N(CCO)[C@]2(C)CCC[C@H](C)[C@H](O)[C@@H](C)C(=O)C(C)(C)[C@@H](O)CC(=O)O1 (stereo partly shown) [Compound 76],–,9.1 ± 1 µM,15 ± 3 nM,8.6 ± 1 nM,45 ± 6 nM,50 ± 10 nM,3.8 ± 0.7 nM,–
CSc1nc(/C=C(\C)[C@@H]2C[C@@H]3N[C@]3(C)CCC[C@H](C)[C@H](O)[C@@H](C)C(=O)C(C)(C)[C@@H](O)CC(=O)O2)cs1 [Compound 77],–,5 ± 1 µM,4 ± 1 nM,16 ± 4 nM,8.8 ± 1 nM,11 ± 3 nM,4.5 ± 0.5 nM,–
CSc1nc(/C=C(\C)[C@@H]2C[C@@H]3N(CCO)[C@]3(C)CCC[C@H](C)[C@H](O)[C@@H](C)C(=O)C(C)(C)[C@@H](O)CC(=O)O2)cs1 (stereo partly shown) [Compound 78],–,14 ± 3 µM,28 ± 6 nM,75 ± 10 nM,55 ± 7 nM,60 ± 10 nM,42 ± 5 nM,–
CSc1nc(/C=C(\C)[C@@H]2C[C@@H]3N(CCN)[C@]3(C)CCC[C@H](C)[C@H](O)[C@@H](C)C(=O)C(C)(C)[C@@H](O)CC(=O)O2)cs1 (stereo partly shown) [Compound 79],–,6.1 ± 0.1 µM,14 ± 2 nM,63 ± 3 nM,70 ± 10 nM,23 ± 6 nM,15 ± 4 nM,–
CSc1nc(/C=C(\C)[C@@H]2C[C@@H]3N(CCN=[N+]=[N-])[C@]3(C)CCC[C@H](C)[C@H](O)[C@@H](C)C(=O)C(C)(C)[C@@H](O)CC(=O)O2)cs1 (stereo partly shown) [Compound 80],–,5.4 ± 0.6 µM,13 ± 3 nM,15 nM,3.2 ± 0.8 nM,22 ± 3 nM,7.3 ± 2 nM,–
CSc1nc(/C=C(\C)[C@@H]2C[C@@H]3N(CC4CC4)[C@]3(C)CCC[C@H](C)[C@H](O)[C@@H](C)C(=O)C(C)(C)[C@@H](O)CC(=O)O2)cs1 (stereo partly shown) [Compound 81],–,5.1 ± 0.4 µM,18 ± 3 nM,15 ± 2 nM,18 ± 4 nM,16 ± 3 nM,9.5 ± 2 nM,–
CSc1cc(/C=C(\C)[C@@H]2C[C@@H]3N(CCO)[C@]3(C)CCC[C@H](C)[C@H](O)[C@@H](C)C(=O)C(C)(C)[C@@H](O)CC(=O)O2)nn1C (stereo partly shown) [Compound 82],–,4.6 ± 0.9 µM,10 ± 1 nM,78 ± 4 nM,7.5 ± 2 nM,10 ± 2 nM,12 ± 2 nM,–
C/C(=C\c1csc(N)n1)[C@@H]1C[C@@H]2N(CCO)[C@]2(C)CCC[C@H](C)[C@H](O)[C@@H](C)C(=O)C(C)(C)[C@@H](O)CC(=O)O1 (stereo partly shown) [Compound 83],–,13 ± 0.4 µM,330 ± 40 nM,290 ± 10 nM,3800 nM,280 ± 30 nM,220 ± 30 nM,–
"C/C(=C\c1csc(C)n1)[C@@H]1C[C@@H]2O[C@@H]2CCC[C@H](C)[C@H](O)[C@@H](C)C(=O)C(C)(C)[C@@H](O)CC(=O)O1 [EpoA, epothilone A]",16 ± 2 µM,14 ± 3 µM,–,–,–,–,–,"IC50 (MCF-7; [4]): 14 ± 4 nM; GI50 (MCF-7; MCF-7, 96 h at 37° C., Table 2): 10 ± 2 nM; IC50 (SNB-75; [5]): 14 ± 3 nM; IC50 (MDA-MB-435; [6]): 15 ± 2 nM; IC50 (OVCAR-8; [7]): 20 ± 5 nM; GI50 (OVCAR-8; [8]): 11 ± 2 nM; IC50 (NCI/ADR-RES; [9]): 35 ± 5 nM"
"C/C(=C\c1csc(C)n1)[C@@H]1C[C@@H]2O[C@]2(C)CCC[C@H](C)[C@H](O)[C@@H](C)C(=O)C(C)(C)[C@@H](O)CC(=O)O1 [EpoB, epothilone B, reference compound]",[…],[…],–,–,–,–,–,"IC50 (MCF-7; [4]): 9.2 ± 2 nM; GI50 (MCF-7; MCF-7, 96 h at 37° C., Table 2): 5.5 nM; IC50 (SNB-75; [5]): 6.5 ± 2 nM; IC50 (MDA-MB-435; [6]): 5.3 ± 0.7 nM; IC50 (OVCAR-8; [7]): 11 ± 3 nM; GI50 (OVCAR-8; [8]): 3.5 ± 0.7 nM; IC50 (NCI/ADR-RES; [9]): 19 ± 4 nM"
"C/C(=C\c1csc(C)n1)[C@@H]1C/C=C\CCC[C@H](C)[C@H](O)[C@@H](C)C(=O)C(C)(C)[C@@H](O)CC(=O)O1 [EpoC, epothilone C, reference compound]",18 µM,–,–,–,–,–,–,"GI50 (MCF-7; MCF-7, 96 h at 37° C., Table 2): 70 nM; GI50 (OVCAR-8; [8]): 110 ± 7 nM"
"C/C1=C/C[C@@H](/C(C)=C/c2csc(C)n2)OC(=O)C[C@H](O)C(C)(C)C(=O)[C@H](C)[C@@H](O)[C@@H](C)CCC1 [EpoD, epothilone D, reference compound]",18 µM,–,–,–,–,–,–,"GI50 (MCF-7; MCF-7, 96 h at 37° C., Table 2): 14 ± 1 nM; GI50 (OVCAR-8; [8]): 13 ± 4 nM"
"C/C(=C\c1csc(C)n1)[C@@H]1C[C@@H]2O[C@]2(C)CCC[C@H](C)[C@H](O)[C@@H](C)C(=O)C(C)(C)[C@@H](O)CC(=O)N1 [Ixab, ixabepilone, reference compound]",4.5 ± 0.7 µM,–,–,–,–,–,–,"GI50 (MCF-7; Homo sapiens, MCF7, 96 h): 7 ± 1 nM; GI50 (OVCAR-8; Homo sapiens, OVCAR-8, 96 h): 35 ± 10 nM"
"CC(=O)O[C@H]1C(=O)[C@@]2(C)[C@H]([C@H](OC(=O)c3ccccc3)[C@]3(O)C[C@H](OC(=O)[C@H](O)[C@@H](NC(=O)c4ccccc4)c4ccccc4)C(C)=C1C3(C)C)[C@]1(OC(C)=O)CO[C@@H]1C[C@@H]2O [PTX, paclitaxel, reference compound]",–,5 ± 1 µM,7.8 ± 2 nM,10 ± 2 nM,–,–,–,"GI50 (MCF-7; Homo sapiens, MCF7, 96 h): 8.5 nM; IC50 (SNB-75; Homo sapiens, SNB-75, IC50, 96 h at 37° C., Table 3): 15 nM; IC50 (MDA-MB-435; Homo sapiens, MDA-MB-435, IC50, 96 h at 37° C., Table 3): 4 ± 1 nM; GI50 (OVCAR-8; Homo sapiens, OVCAR-8, 96 h): 6.5 ± 2 nM; IC50 (NCI/ADR-RES; Homo sapiens, NCI/ADR-RES (overexpresses P-glycoprotein), IC50, 96 h at 37° C., Table 3): 4200 nM"
